In PubChem BioAssay AID1963973 (Molecular Pharmacology Branch, DTP, NCI, 2024):

Test system: 883617-216-R-J1-PDC tumor spheroids, viability
Experiment: Anticancer human tumor 883617-216-R-J1-PDC patient-derived bladder carcinoma cell line growth inhibition [PI3K]
Settings: spheroids with HUVEC and MSC; for IC50: curve of first compound; for viability, T/C: stronger effect = lower value
Source text: Combinatorial screen of targeted agents with the PI3K inhibitors inavolisib, alpelisib, duvelisib, and copanlisib in multi-cell type tumor spheroids
A high-throughput screen of multi-cell type tumor spheroids was designed to identify active combinations of targeted small molecules and PI3K pathway inhibitors. Complex spheroids include a stromal component modeled by human endothelial cells (HUVEC) and fibroblasts modeled by human mesenchymal stem cells (MSCs). The concentration ranges selected for each drug and investigational agent were based upon clinically achievable concentrations if the clinical Cmax of the agent was known.
Compounds. The drugs and investigational agents: inavolisib (NSC800729), alpelisib (NSC765974), duvelisib (NSC772469), copanlisib (NSC816437), ipatasertib (NSC767898), afuresertib (NSC778305), talazoparib (NSC767125), sapanisertib (NSC764658), selumetinib (NSC741078), tovorafenib (DAY101, NSC766906), vemurafenib (NSC761431), ravoxertinib (NSC781343), sotorasib (NSC818433), MRTX1133 (NSC 836407), abemaciclib (NSC 768073), palbociclib (NSC758247), venetoclax (NSC 766270), SY5609 (NSC837396), enzalutamide (NSC755605), and darolutamide (NSC825331), were obtained from the National Cancer Institute (NCI) Developmental Therapeutics Program Chemical Repository. The FDA-approved anticancer drug set is available from the NCI Developmental Therapeutics Program. […] The stock solutions were prepared in dimethyl sulfoxide (DMSO, Sigma-Aldrich, St. Louis, MO, cat. D2650) at 800-fold the tested concentration and stored at -70 degrees C prior to their use. All drugs and investigational agents were tested over a range starting from a high concentration at or near the clinical Cmax and decreasing in half-log increments. If the clinical Cmax for an agent had not been determined, the highest concentration tested was 10 microM.
Cell Culture. All cells were maintained in an incubator at 37 degrees C and 5% CO2 with 95% humidity. The PDC lines were cultured according to standard operating procedures established by the NCI PDMR (https://pdmr.cancer.gov/sops/default.htm). All PDCs were thawed and cultured in Matrigel-coated flasks prepared with a working solution of 1X Ham's F-12 nutrient mix, without supplementation (Invitrogen, Waltham, MA, cat. 11765054), 100 U/mL penicillin-streptomycin (Invitrogen, cat. 15140122), and 2.5% Matrigel (Corning Inc., Corning, NY, cat. 354248) for the first three passages. The 354836-022-R-J1-PDC, 475296-252-R-J1-PDC, and 997726-040-R-J2-PDC lines were cultured in 6A media, which includes advanced DMEM/F-12 (Thermo Fisher Scientific, cat. 12634028), 10 mM HEPES (Thermo Fisher Scientific, cat. 15630080), 1X GlutaMAX supplement (Thermo Fisher Scientific, cat. 35050061), 0.1 mg/mL primocin (InvivoGen, San Diego, CA, cat. ant-pm-2), 10% defined fetal bovine serum, heat inactivated (HyClone Laboratories Inc., Logan, UT, cat. SH30070.03HI), 50% L-WRN conditioned media (ATCC, cat. CRL-3276), 1.25 mM N-Acetyl-L-cysteine (Sigma-Aldrich, cat. A9165), 10 mM nicotinamide (Sigma-Aldrich, cat. N0636), 1X B-27 supplement (Thermo Fisher Scientific, cat. 17504044), 1X N-2 supplement (Thermo Fisher Scientific, cat. 17502048), and 10 microM Y-27632 dihydrochloride (Tocris Bioscience, Bristol, United Kingdom, cat. 1254). The 624824-186-R-J2-PDC line was cultured in 6C/Colon 1B media, which includes all 6A media components plus 50 ng/mL human EGF recombinant protein (Thermo Fisher Scientific, cat. PHG0311). […]
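Further: spheroids exposed to agents for 7 days before the viability read.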

With `CNC(=O)c1ccc(N2C(=S)N(c3ccc(C#N)c(C(F)(F)F)c3)C(=O)C2(C)C)cc1F` + CC(Nc1ccc2c(c1)OCCn1cc(N3C(=O)OCC3C(F)F)nc1-2)C(N)=O the IC50 (second compound 0.00316 µM) was > 10 µM, the IC50 (second compound 0.01 µM) was > 10 µM and the IC50 (second compound 0.0316 µM) was > 10 µM. The IC50 (second compound 0.1 µM) was < 0.0316 µM, the IC50 (second compound 0.316 µM) was < 0.0316 µM and the IC50 (second compound 1 µM) was < 0.0316 µM. The viability, T/C (second compound 0.00316 µM, first compound 0.0316 µM) was 94.3%, the viability, T/C (second compound 0.00316 µM, first compound 0.1 µM) was 78.7% and the viability, T/C (second compound 0.00316 µM, first compound 0.316 µM) was 97.5%. It also gave a viability, T/C (second compound 0.00316 µM, first compound 1 µM) of 104%, a viability, T/C (second compound 0.00316 µM, first compound 3.16 µM) of 82.2% and a viability, T/C (second compound 0.00316 µM, first compound 10 µM) of 62.4%. The viability, T/C (second compound 0.01 µM, first compound 0.0316 µM) was 90.3%, the viability, T/C (second compound 0.01 µM, first compound 0.1 µM) was 74.3% and the viability, T/C (second compound 0.01 µM, first compound 0.316 µM) was 82.6%. It also gave a viability, T/C (second compound 0.01 µM, first compound 1 µM) of 97.5%, a viability, T/C (second compound 0.01 µM, first compound 3.16 µM) of 82.3% and a viability, T/C (second compound 0.01 µM, first compound 10 µM) of 63.4%. For the same compound, the viability, T/C (second compound 0.0316 µM, first compound 0.0316 µM) was 61.1%, the viability, T/C (second compound 0.0316 µM, first compound 0.1 µM) was 62.5% and the viability, T/C (second compound 0.0316 µM, first compound 0.316 µM) was 59%. For the same compound, the viability, T/C (second compound 0.0316 µM, first compound 1 µM) was 75.8%, the viability, T/C (second compound 0.0316 µM, first compound 3.16 µM) was 79.8% and the viability, T/C (second compound 0.0316 µM, first compound 10 µM) was 44.8%. The viability, T/C (second compound 0.1 µM, first compound 0.0316 µM) was 35.2%, the viability, T/C (second compound 0.1 µM, first compound 0.1 µM) was 39.1% and the viability, T/C (second compound 0.1 µM, first compound 0.316 µM) was 44.9%. The viability, T/C (second compound 0.1 µM, first compound 1 µM) was 41.9%, the viability, T/C (second compound 0.1 µM, first compound 3.16 µM) was 42.5% and the viability, T/C (second compound 0.1 µM, first compound 10 µM) was 27.9%. The viability, T/C (second compound 0.316 µM, first compound 0.0316 µM) was 20.5%, the viability, T/C (second compound 0.316 µM, first compound 0.1 µM) was 23.9% and the viability, T/C (second compound 0.316 µM, first compound 0.316 µM) was 21.2%. For the same compound, the viability, T/C (second compound 0.316 µM, first compound 1 µM) was 26.2%, the viability, T/C (second compound 0.316 µM, first compound 3.16 µM) was 48.8% and the viability, T/C (second compound 0.316 µM, first compound 10 µM) was 19.3%. It also gave a viability, T/C (second compound 1 µM, first compound 0.0316 µM) of 16.9%, a viability, T/C (second compound 1 µM, first compound 0.1 µM) of 11.8% and a viability, T/C (second compound 1 µM, first compound 0.316 µM) of 16.3%. For the same compound, the viability, T/C (second compound 1 µM, first compound 1 µM) was 19.5%, the viability, T/C (second compound 1 µM, first compound 3.16 µM) was 17.2% and the viability, T/C (second compound 1 µM, first compound 10 µM) was 12.3%.
